Test results as given in US12697318B2, “Anti-inflammatory agent containing rare fatty acid” (Noster Inc., priority 2014, dated 2026).

Test system: mouse-derived macrophage-like cell line RAW264.7
Assay: Evaluation of NO production amount by Griess method
Type: cell-based
Details: general statement of effect; based on suppression of NO production by M1 macrophage
Experimental: The mouse-derived macrophage-like cell line RAW264.7 was seeded in a 48 well plate 1×10^5 cells per well. After culture for 5 hr, Escherichia coli-derived lipopolysaccharide (LPS) was added to 100 ng/mL over 24 hr to activate RAW264.7 cells. Simultaneously with LPS, various compounds (No. 1-No. 17, LA, ALA) were added at 10 μM, and the concentration of […] (NO2^−), which is an oxide of nitric oxide (NO) produced by macrophage activation, in the culture medium was measured. The amount of NO2 in the culture medium was quantified by the Griess method and in reference to Shan Lin et al., Molecular Nutrition and Food Research 57 (2013) p 1135-1144, “Auraptene suppresses inflammatory responses in activated RAW264 macrophages by inhibiting p38 mitogen-activated protein kinase activation”, the section of Material and methods Measurements of TNF-α, MCP-1, and NO concentrations. The quantification was actually performed as follows. RAW264.7 culture medium treated with LPS and various compounds for 24 hr was recovered. 0.2% N-(1-naphthyl) ethylenediamine and 2% Sulfanilamide/10% H3PO4 were blended at 1:1 immediately before reaction to give a Griess reagent, RAW264.7 culture medium and the Griess reagent were mixed at 1:1 and reacted at room temperature for 10 min. After completion of the reaction, absorbance at 550 nm was measured. NaNO2 was used as the NO2^− standard product, and the NO2^− concentration in the culture medium was calculated. The concentration of the sample was adjusted with ethanol. Ethanol was used as a negative control, and BAY11-7082 (5 μM), which is a IκBα phosphorylation inhibitor, was used as a positive control.

Row | Structure (SMILES) | anti-inflammatory action
1 | CCCCCC(=O)CC/C=C\CCCCCCCC(=O)O [No. 15, 13-oxo-cis-9-octadecenoic acid] | have an anti-inflammatory action
2 | CCCCCC(O)CC/C=C\CCCCCCCC(=O)O (stereo not drawn) [No. 14, 13-hydroxy-cis-9-octadecenoic acid] | have an anti-inflammatory action
3 | CCCCC/C=C\CC(=O)CCCCCCCCC(=O)O [No. 6, 10-oxo-cis-12-octadecenoic acid] | have an anti-inflammatory action
4 | CCCCC/C=C\CC(O)CCCCCCCCC(=O)O (stereo not drawn) [No. 4, 10-hydroxy-cis-12-octadecenoic acid] | have an anti-inflammatory action
